In patent US11840686B2, “Modulation of prekallikrein (PKK) expression” (Ionis Pharmaceuticals, Inc., priority 2013, dated 2023):
Strand notation (5' to 3'): a small letter for the sugar, then the base; units joined by * are phosphorothioate-linked, units joined directly phosphodiester-linked; [ ] holds rarer units or linkages, { } end groups; capitals alone tell only the bases. e = 2'-O-(2-methoxyethyl) (MOE); k = constrained ethyl (cEt); [5mC] = 5-methylcytosine; d = 2'-deoxy (DNA)

Tested on: human PKK mRNA
Test: Antisense inhibition of human PKK mRNA in HepaRG cells, 1,000 nM, MOE/deoxy/cEt oligonucleotides (Example 3)
Format: cell-based
Procedure, shortened: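 Readout is percent PKK mRNA reduction against untreated controls, by real-time PCR (RTS3454) adjusted for total RNA via RIBOGREEN. Oligonucleotides, phosphorothioate gapmers of 16 nucleosides with cEt, MOE and deoxy sugars, were delivered at 1,000 nM by electroporation to 20,000 HepaRG cells/well for roughly 24 h.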

[1] = HepaRG cells, 1,000 nM antisense oligonucleotide, Table 29
[2] = PKK mRNA, HepaRG cells, 1,000 nM antisense oligonucleotide, Table 31
[3] = Table 20, HepaRG cells, electroporation with 1,000 nM antisense oligonucleotide, approximately 24 hours, PKK mRNA by RT-PCR (RTS3454), relative to untreated control cells
[4] = Table 22 experiment, HepaRG cells, electroporation with 1,000 nM antisense oligonucleotide, approx. 24 hours, PKK mRNA by RT-PCR (RTS3454), relative to untreated control cells
[5] = HepaRG cells, electroporation with 1,000 nM antisense oligonucleotide, approx. 24 hours, PKK mRNA by RT-PCR (RTS3454), relative to untreated control cells, Table 26 experiment
[6] = Table 19, HepaRG cells, electroporation with 1,000 nM antisense oligonucleotide, approximately 24 hours, PKK mRNA by RT-PCR (RTS3454), relative to untreated control cells
[7] = Table 28, HepaRG cells, 1,000 nM antisense oligonucleotide, human PKK mRNA
[8] = Table 30, human PKK mRNA, HepaRG cells, 1,000 nM antisense oligonucleotide
[9] = Table 21 experiment, HepaRG cells, electroporation with 1,000 nM antisense oligonucleotide, approx. 24 hours, PKK mRNA by RT-PCR (RTS3454), relative to untreated control cells
[10] = HepaRG cells, electroporation with 1,000 nM antisense oligonucleotide, approx. 24 hours, PKK mRNA by RT-PCR (RTS3454), relative to untreated control cells, Table 25 experiment

548589 (eT*e[5mC]*kT*dG*dT*dT*dA*d[5mC]*d[5mC]*dT*dT*dG*dA*kG*kG*eA; antisense) [compound 548589]
% inhibition [1]: 40%

548584 (eT*eG*kA*dT*dG*dA*dA*dG*dT*dT*d[5mC]*d[5mC]*dA*k[5mC]*k[5mC]*eT; antisense) [compound 548584]
% inhibition [1]: 47%

548681 (antisense eG*eA*kT*dA*dT*d[5mC]*dA*dT*d[5mC]*dA*dT*d[5mC]*d[5mC]*k[5mC]*kA*eA) [compound 548681]
% inhibition [2]: 22%

548546 (antisense eG*e[5mC]*k[5mC]*d[5mC]*dA*dA*dG*d[5mC]*d[5mC]*dT*dA*d[5mC]*dA*kT*kG*e[5mC]) [compound 548546]
% inhibition [1]: 35%

548614 (antisense eT*eG*kG*dT*dG*dG*d[5mC]*dG*dG*dG*dA*dT*d[5mC]*kG*kG*eT) [compound 548614]
% inhibition [2]: 0%

548635 (antisense eA*eG*kG*dT*dG*dT*dG*dG*d[5mC]*dG*d[5mC]*dG*d[5mC]*kG*k[5mC]*e[5mC]) [compound 548635]
% inhibition [2]: 18%

548666 (antisense eT*e[5mC]*kT*d[5mC]*d[5mC]*dA*dT*dA*dG*dT*dG*dA*dG*kA*k[5mC]*eG) [compound 548666]
% inhibition [2]: 1%

547882 (e[5mC]*eT*kG*dG*d[5mC]*dA*dG*d[5mC]*dG*dA*dA*dT*dG*kT*kT*eA; antisense) [compound 547882]
% inhibition [3]: 91% | % inhibition [4]: 96%

547896 (eT*eA*kG*dG*d[5mC]*dA*dA*dT*dT*dG*dT*dT*d[5mC]*k[5mC]*kG*eG; antisense) [compound 547896]
% inhibition [4]: 95%

548255 (antisense e[5mC]*e[5mC]*k[5mC]*d[5mC]*dA*dT*dG*d[5mC]*dA*dT*dA*d[5mC]*dT*k[5mC]*kG*e[5mC]) [compound 548255]
% inhibition [5]: 38%

547873 (antisense e[5mC]*eT*kG*d[5mC]*dT*dA*dA*d[5mC]*d[5mC]*dT*dT*dA*dG*kA*k[5mC]*eA) [compound 547873]
% inhibition [3]: 77% | % inhibition [4]: 82%

547887 (e[5mC]*e[5mC]*kG*dG*dT*dA*d[5mC]*dT*d[5mC]*dT*dG*d[5mC]*d[5mC]*kT*kT*eG; antisense) [compound 547887]
% inhibition [4]: 99%

548149 (eG*eA*k[5mC]*dA*dT*dT*dG*dT*d[5mC]*d[5mC]*dT*d[5mC]*dA*kG*k[5mC]*eA; antisense) [compound 548149]
% inhibition [6]: 39%

548488 (antisense e[5mC]*e[5mC]*kT*d[5mC]*d[5mC]*dT*dT*dT*dT*dG*dG*d[5mC]*dT*kT*kG*eA) [compound 548488]
% inhibition [7]: 63%

548419 (antisense e[5mC]*e[5mC]*kT*dA*dT*dA*dT*d[5mC]*dA*d[5mC]*dT*dG*dT*k[5mC]*k[5mC]*eT) [compound 548419]
% inhibition [8]: 52%

548229 (e[5mC]*eA*kT*dT*dG*dT*dT*dG*dT*dG*dT*dG*dG*k[5mC]*k[5mC]*e[5mC]; antisense) [compound 548229]
% inhibition [5]: 31%

547993 (antisense eT*eA*kG*dA*dT*dA*dA*dT*d[5mC]*dT*dT*dA*dA*kG*kA*eA) [compound 547993]
% inhibition (HepaRG cells, electroporation with 1,000 nM antisense oligonucleotide, approximately 24 hours, primer probe set RTS3454, relative to untreated control cells, experiment of Table 23): 26%

548231 (eA*eA*kT*dA*d[5mC]*dT*d[5mC]*dA*dT*dT*dG*dT*dT*kG*kT*eG; antisense) [compound 548231]
% inhibition [5]: 11%

548241 (e[5mC]*eA*kT*dA*d[5mC]*dT*d[5mC]*dG*d[5mC]*d[5mC]*dT*dT*dT*kG*kT*eG; antisense) [compound 548241]
% inhibition [5]: 1%

547799 (eG*eA*kA*dG*d[5mC]*dT*dA*d[5mC]*dA*dT*d[5mC]*d[5mC]*d[5mC]*k[5mC]*kA*e[5mC]; antisense) [compound 547799]
% inhibition [9]: 41%

548641 (antisense eG*e[5mC]*kA*dT*d[5mC]*dA*dT*dG*d[5mC]*dT*dT*dA*d[5mC]*kT*kG*e[5mC]) [compound 548641]
% inhibition [2]: 23%

548095 (antisense eT*eG*kT*dT*dT*dG*d[5mC]*dA*dA*dA*d[5mC]*dT*dA*kA*kG*eG) [compound 548095]
% inhibition [6]: 35%

548218 (eT*e[5mC]*k[5mC]*dT*dG*dT*dG*d[5mC]*dA*dT*dA*dG*dA*k[5mC]*k[5mC]*e[5mC]; antisense) [compound 548218]
% inhibition [10]: 59%

547777 (antisense eT*eT*kG*d[5mC]*dT*dT*d[5mC]*dT*dT*dG*dG*dA*dG*kG*kT*eG) [compound 547777]
% inhibition [9]: 69%

547788 (antisense eT*eA*kA*dG*dT*dT*dG*d[5mC]*dT*dT*dG*d[5mC]*dT*kT*kG*eA) [compound 547788]
% inhibition [9]: 49%

548295 (e[5mC]*eT*k[5mC]*dT*dG*dA*dT*dT*dG*dG*dG*dT*d[5mC]*kA*k[5mC]*e[5mC]; antisense) [compound 548295]
% inhibition [5]: 26%

547793 (antisense eA*eT*k[5mC]*d[5mC]*dA*d[5mC]*dA*dG*dG*dA*dA*dA*d[5mC]*kT*kG*eT) [compound 547793]
% inhibition [9]: 16%

548016 (eA*eA*kG*dA*dG*dT*dT*dT*dG*dT*dT*d[5mC]*d[5mC]*kT*k[5mC]*e[5mC]; antisense) [compound 548016]
% inhibition (HepaRG cells, electroporation with 1,000 nM antisense oligonucleotide, approximately 24 hours, primer probe set RTS3454, relative to untreated control cells, experiment of Table 24): 55%

548453 (eT*eA*k[5mC]*d[5mC]*dT*dA*dT*dA*dA*d[5mC]*dA*dG*dT*kA*kT*e[5mC]; antisense) [compound 548453]
% inhibition [8]: 12%

548522 (antisense eA*eG*kG*dT*dA*dT*dT*dG*dA*d[5mC]*d[5mC]*dG*d[5mC]*k[5mC]*kA*eG) [compound 548522]
% inhibition [7]: 55%

548520 (antisense e[5mC]*e[5mC]*kG*d[5mC]*dT*dT*d[5mC]*d[5mC]*d[5mC]*dT*dG*dA*d[5mC]*kT*kG*eT) [compound 548520]
% inhibition [7]: 43%

548458 (eA*e[5mC]*k[5mC]*dT*dA*dT*dA*dA*d[5mC]*dT*dA*dT*dA*kA*k[5mC]*eA; antisense) [compound 548458]
% inhibition [8]: 0%

548555 (antisense eA*e[5mC]*kA*d[5mC]*dG*d[5mC]*d[5mC]*dA*dG*dG*dT*dG*dA*kA*kA*eA) [compound 548555]
% inhibition [1]: 2%

548165 (e[5mC]*eG*kA*d[5mC]*d[5mC]*dT*d[5mC]*dG*d[5mC]*dA*dT*dT*dG*kT*k[5mC]*eA; antisense) [compound 548165]
% inhibition [10]: 53%

548254 (antisense e[5mC]*e[5mC]*k[5mC]*dA*dT*dG*d[5mC]*dA*dT*dA*d[5mC]*dT*d[5mC]*kG*k[5mC]*e[5mC]) [compound 548254]
% inhibition [5]: 39%

547841 (antisense e[5mC]*eA*k[5mC]*dA*dT*dT*dG*d[5mC]*dT*dT*d[5mC]*dA*dA*kG*kG*eA) [compound 547841]
% inhibition [9]: 42%

547837 (eT*eG*kT*d[5mC]*d[5mC]*dA*dG*dA*dA*dA*d[5mC]*dT*dG*k[5mC]*kA*e[5mC]; antisense) [compound 547837]
% inhibition [9]: 51%

548192 (e[5mC]*e[5mC]*kT*dG*dT*d[5mC]*dA*dA*d[5mC]*dA*dT*dA*dT*kT*k[5mC]*e[5mC]; antisense) [compound 548192]
% inhibition [10]: 65%

548581 (eG*eG*kT*dG*dG*dG*dT*dT*dA*dT*d[5mC]*dT*dG*kA*kG*eA; antisense) [compound 548581]
% inhibition [1]: 13%

548576 (eT*e[5mC]*kA*dT*dG*dT*dG*dG*d[5mC]*dA*dA*d[5mC]*d[5mC]*kT*kG*eT; antisense) [compound 548576]
% inhibition [1]: 41%

548491 (antisense eT*eG*kG*d[5mC]*d[5mC]*dA*dA*dG*d[5mC]*dA*dA*d[5mC]*d[5mC]*kA*kG*eT) [compound 548491]
% inhibition [7]: 57%

547852 (antisense eA*eT*kA*dA*dA*dT*dG*dT*d[5mC]*dT*d[5mC]*dG*dA*kT*kG*eG) [compound 547852]
% inhibition [3]: 67% | % inhibition [4]: 66%

548333 (antisense eG*eA*k[5mC]*dT*dG*dT*dG*d[5mC]*dT*dA*dT*d[5mC]*d[5mC]*kG*k[5mC]*eT) [compound 548333]
% inhibition (Table 27, HepaRG cells, 1,000 nM antisense oligonucleotide, human PKK mRNA): 58%

548580 (e[5mC]*e[5mC]*kA*dG*dA*dG*d[5mC]*d[5mC]*dT*dT*dG*dA*dT*k[5mC]*kA*eG; antisense) [compound 548580]
% inhibition [1]: 36%

548203 (eT*eG*kA*d[5mC]*dT*dA*dG*dT*dG*dA*dA*dT*dG*kG*k[5mC]*eT; antisense) [compound 548203]
% inhibition [10]: 73%

547917 (eA*e[5mC]*k[5mC]*d[5mC]*dT*dG*dG*d[5mC]*dA*dA*d[5mC]*dA*dT*k[5mC]*k[5mC]*eA; antisense) [compound 547917]
% inhibition [3]: 33% | % inhibition [4]: 54%

548193 (eT*eG*kT*d[5mC]*d[5mC]*dT*dG*dT*d[5mC]*dA*dA*d[5mC]*dA*kT*kA*eT; antisense) [compound 548193]
% inhibition [10]: 58%
